# Test results published in ChEMBL document CHEMBL3044830, “Synthesis, characterization, antibacterial, antifungal, and immunomodulating activities of gatifloxacin derivatives” (Med Chem Res, 2010).
# Key:
# T-cell [1] = experiment: Anti-inflammatory activity in Homo sapiens (human) T lymphocytes assessed as inhibition of PHA-induced [3H] thymidine uptake incubated for 72 hr prior to [3H]thymidine addition measured after 18 hr by liquid scintillation method; assay type: functional, cell-based
# Blood [2] = experiment: Antioxidant activity in Homo sapiens (human) whole blood assessed as inhibition of ROS production at 100 ug/ml after 30 min by luminol-enhanced chemiluminescence assay; assay type: functional; settings: 0.5 h
# Bacillus subtilis [3] = experiment: Antibacterial activity against Bacillus subtilis assessed as concentration required to obtain a zone of inhibition of 20 mm after 18 to 24 hr by disk diffusion method; assay type: functional
# [4] = Antibacterial activity against Hofmanni bacterium assessed as concentration required to obtain a zone of inhibition of 10 mm after 18 to 24 hr by disc diffusion method
# Klebsiella pneumoniae [5] = experiment: Antibacterial activity against Klebsiella pneumoniae assessed as concentration required to obtain a zone of inhibition of 5 mm after 18 to 24 hr by disk diffusion method; assay type: functional
# Klebsiella pneumoniae [6] = experiment: Antibacterial activity against Klebsiella pneumoniae assessed as concentration required to obtain a zone of inhibition of 10 mm after 18 to 24 hr by disk diffusion method; assay type: functional
# Fusarium solani [7] = experiment: Antifungal activity against Fusarium solani assessed as concentration required to obtain a zone of inhibition of 40 mm after 7 days by disk diffusion method; assay type: functional
# Proteus mirabilis [8] = experiment: Antibacterial activity against Proteus mirabilis assessed as concentration required to obtain a zone of inhibition of 5 mm after 18 to 24 hr by disc diffusion method; assay type: functional
# T-cell [9] = experiment: Anti-inflammatory activity in Homo sapiens (human) T lymphocytes assessed as inhibition of PHA-induced [3H] thymidine uptake at 3.12 ug/ml incubated for 72 hr prior to [3H]thymidine addition measured after 18 hr by liquid scintillation method; assay type: functional
# Shigella sp. [10] = experiment: Antibacterial activity against Shigella typhi assessed as concentration required to obtain a zone of inhibition of 20 mm after 18 to 24 hr by disc diffusion method; assay type: functional
# Escherichia coli [11] = experiment: Antibacterial activity against Escherichia coli assessed as concentration required to obtain a zone of inhibition of 5 mm after 18 to 24 hr by disk diffusion method; assay type: functional
# Pseudomonas aeruginosa [12] = experiment: Antibacterial activity against Pseudomonas aeruginosa assessed as concentration required to obtain a zone of inhibition of 20 mm after 18 to 24 hr by disk diffusion method; assay type: functional
# Bacillus subtilis [13] = experiment: Antibacterial activity against Bacillus subtilis assessed as concentration required to obtain a zone of inhibition of 5 mm after 18 to 24 hr by disk diffusion method; assay type: functional
# Citrobacter [14] = experiment: Antibacterial activity against Citrobacter assessed as concentration required to obtain a zone of inhibition of 10 mm after 18 to 24 hr by disk diffusion method; assay type: functional
# Shigella flexneri [15] = experiment: Antibacterial activity against Shigella flexneri assessed as concentration required to obtain a zone of inhibition of 20 mm after 18 to 24 hr by disk diffusion method; assay type: functional
# Blood [16] = experiment: Antioxidant activity in Homo sapiens (human) whole blood assessed as inhibition of ROS production at 50 ug/ml after 30 min by luminol-enhanced chemiluminescence assay; assay type: functional; settings: 0.5 h
# Blood [17] = experiment: Antioxidant activity in Homo sapiens (human) whole blood assessed as inhibition of ROS production after 30 min by luminol-enhanced chemiluminescence assay; assay type: functional, tissue-based; settings: 0.5 h
# [18] = Antibacterial activity against Hofmanni bacterium assessed as concentration required to obtain a zone of inhibition of 20 mm after 18 to 24 hr by disc diffusion method
# Citrobacter [19] = experiment: Antibacterial activity against Citrobacter assessed as concentration required to obtain a zone of inhibition of 20 mm after 18 to 24 hr by disk diffusion method; assay type: functional
# Pseudomonas aeruginosa [20] = experiment: Antibacterial activity against Pseudomonas aeruginosa assessed as concentration required to obtain a zone of inhibition of 10 mm after 18 to 24 hr by disk diffusion method; assay type: functional
# T-cell [21] = experiment: Anti-inflammatory activity in Homo sapiens (human) T lymphocytes assessed as inhibition of PHA-induced [3H] thymidine uptake at 50 ug/ml incubated for 72 hr prior to [3H]thymidine addition measured after 18 hr by liquid scintillation method; assay type: functional
# Candida albicans [22] = experiment: Antifungal activity against Candida albicans assessed as concentration required to obtain a zone of inhibition of 40 mm after 7 days by disk diffusion method; assay type: functional
# Shigella flexneri [23] = experiment: Antibacterial activity against Shigella flexneri assessed as concentration required to obtain a zone of inhibition of 5 mm after 18 to 24 hr by disk diffusion method; assay type: functional
# Escherichia coli [24] = experiment: Antibacterial activity against Escherichia coli assessed as concentration required to obtain a zone of inhibition of 20 mm after 18 to 24 hr by disk diffusion method; assay type: functional
# [25] = Antibacterial activity against Hofmanni bacterium assessed as concentration required to obtain a zone of inhibition of 5 mm after 18 to 24 hr by disc diffusion method
# Shigella flexneri [26] = experiment: Antibacterial activity against Shigella flexneri assessed as concentration required to obtain a zone of inhibition of 10 mm after 18 to 24 hr by disk diffusion method; assay type: functional
# Pseudomonas aeruginosa [27] = experiment: Antibacterial activity against Pseudomonas aeruginosa assessed as concentration required to obtain a zone of inhibition of 5 mm after 18 to 24 hr by disk diffusion method; assay type: functional
# Candida albicans [28] = experiment: Antifungal activity against Candida albicans assessed as concentration required to obtain a zone of inhibition of 20 mm after 7 days by disk diffusion method; assay type: functional
# Fusarium solani [29] = experiment: Antifungal activity against Fusarium solani assessed as concentration required to obtain a zone of inhibition of 20 mm after 7 days by disk diffusion method; assay type: functional
# Proteus mirabilis [30] = experiment: Antibacterial activity against Proteus mirabilis assessed as concentration required to obtain a zone of inhibition of 10 mm after 18 to 24 hr by disc diffusion method; assay type: functional
# Proteus mirabilis [31] = experiment: Antibacterial activity against Proteus mirabilis assessed as concentration required to obtain a zone of inhibition of 20 mm after 18 to 24 hr by disc diffusion method; assay type: functional
# Escherichia coli [32] = experiment: Antibacterial activity against Escherichia coli assessed as concentration required to obtain a zone of inhibition of 10 mm after 18 to 24 hr by disk diffusion method; assay type: functional
# Klebsiella pneumoniae [33] = experiment: Antibacterial activity against Klebsiella pneumoniae assessed as concentration required to obtain a zone of inhibition of 20 mm after 18 to 24 hr by disk diffusion method; assay type: functional
# Bacillus subtilis [34] = experiment: Antibacterial activity against Bacillus subtilis assessed as concentration required to obtain a zone of inhibition of 10 mm after 18 to 24 hr by disk diffusion method; assay type: functional
# Shigella sp. [35] = experiment: Antibacterial activity against Shigella typhi assessed as concentration required to obtain a zone of inhibition of 5 mm after 18 to 24 hr by disc diffusion method; assay type: functional
# Trichophyton rubrum [36] = experiment: Antifungal activity against Trichophyton rubrum assessed as concentration required to obtain a zone of inhibition of 40 mm after 7 days by disk diffusion method; assay type: functional
# Citrobacter [37] = experiment: Antibacterial activity against Citrobacter assessed as concentration required to obtain a zone of inhibition of 5 mm after 18 to 24 hr by disk diffusion method; assay type: functional
# Blood [38] = experiment: Antioxidant activity in Homo sapiens (human) whole blood assessed as inhibition of ROS production at 12.5 ug/ml after 30 min by luminol-enhanced chemiluminescence assay; assay type: functional; settings: 0.5 h
# T-cell [39] = experiment: Anti-inflammatory activity in Homo sapiens (human) T lymphocytes assessed as inhibition of PHA-induced [3H] thymidine uptake at 12.5 ug/ml incubated for 72 hr prior to [3H]thymidine addition measured after 18 hr by liquid scintillation method; assay type: functional
# Trichophyton rubrum [40] = experiment: Antifungal activity against Trichophyton rubrum assessed as concentration required to obtain a zone of inhibition of 20 mm after 7 days by disk diffusion method; assay type: functional
structure (smiles),measurement,setting,value
COc1c(N2CCNC(C)C2)c(F)cc2c(=O)c(C(=O)O)cn(C3CC3)c12 (stereo not given) [GATIFLOXACIN],IC50,T-cell [1],> 50 µg/mL
same,inhibition at 100 µg/mL,Blood [2],84.7%
same,Activity,Bacillus subtilis [3],17 µg/mL
same,Activity,[4],13 µg/mL
same,Activity,Klebsiella pneumoniae [5],9 µg/mL
same,Activity,Klebsiella pneumoniae [6],14 µg/mL
same,Activity,Fusarium solani [7],18 µg/mL
same,Activity,Proteus mirabilis [8],9 µg/mL
same,inhibition at 3.12 µg/mL,T-cell [9],-71.1%
same,Activity,Shigella sp. [10],21 µg/mL
same,Activity,Escherichia coli [11],7.5 µg/mL
same,Activity,Pseudomonas aeruginosa [12],14 µg/mL
same,Activity,Bacillus subtilis [13],11 µg/mL
same,Activity,Citrobacter [14],23 µg/mL
same,Activity,Shigella flexneri [15],23 µg/mL
same,inhibition at 50 µg/mL,Blood [16],66%
same,IC50,Blood [17],31 µg/mL
same,Activity,[18],15 µg/mL
same,Activity,Citrobacter [19],26 µg/mL
same,Activity,Pseudomonas aeruginosa [20],12 µg/mL
same,inhibition at 50 µg/mL,T-cell [21],-25.2%
same,Activity,Candida albicans [22],9 µg/mL
same,Activity,Shigella flexneri [23],9 µg/mL
same,Activity,Escherichia coli [24],17 µg/mL
same,Activity,[25],8 µg/mL
same,Activity,Shigella flexneri [26],16 µg/mL
same,Activity,Pseudomonas aeruginosa [27],8 µg/mL
same,Activity,Candida albicans [28],8 µg/mL
same,Activity,Fusarium solani [29],12 µg/mL
same,Activity,Proteus mirabilis [30],15 µg/mL
same,Activity,Proteus mirabilis [31],19 µg/mL
same,Activity,Escherichia coli [32],12 µg/mL
same,Activity,Klebsiella pneumoniae [33],19 µg/mL
same,Activity,Bacillus subtilis [34],15 µg/mL
same,Activity,Shigella sp. [35],8 µg/mL
same,Activity,Trichophyton rubrum [36],14 µg/mL
same,Activity,Citrobacter [37],15 µg/mL
same,inhibition at 12.5 µg/mL,Blood [38],19.7%
same,inhibition at 12.5 µg/mL,T-cell [39],-97.9%
same,Activity,Trichophyton rubrum [40],12 µg/mL
